Test results as given in BindingDB's records for patent US11878965 (Gilead Sciences, 2024).

Target: Protein-arginine deiminase type-4 (Homo sapiens, UniProt Q9UM07)
Assay: In Vitro PAD4 BAEE Biochemical Assay
Method: One hundred nanoliters of test compounds dissolved in DMSO at various concentrations were dispensed into a 384-well black OptiPlate using a Labcyte Echo instrument. Ten microliters of a solution of recombinant PAD4 and calcium chloride diluted in PAD4 assay buffer (50 mM MOPS [3-(N-morpholino) propanesulfonic acid], pH 7.6; 50 mM sodium chloride; 0.05% Tween-20; 2 mM dithiothreitol) was added to the compound-containing plate and was incubated for 30 minutes at 25° C. Ten microliters of a solution of BAEE (Sigma-Aldrich #B4500) diluted in PAD4 assay buffer was then added to start the reaction. Final concentrations were 5 nM PAD4, 2 mM calcium chloride, and 3 mM BAEE. The reaction mixture was incubated at 25° C. for 2 hours and was stopped with the addition of 10 microliters of a solution of 75 mM EDTA (Ethylenediaminetetraacetic acid) in PAD4 assay buffer. Thirty microliters of detection solution (5 mM o-phthalaldehyde, 50 mM MOPS [3-(N-morpholino) propanesulfonic acid], pH 7.6; 50 mM sodium chloride; 0.05% Tween-20; 5 mM dithiothreitol) was then added and the reaction was incubated for 1 hour at 25° C.

Chain of Protein-arginine deiminase type-4 (Q9UM07 whole entry): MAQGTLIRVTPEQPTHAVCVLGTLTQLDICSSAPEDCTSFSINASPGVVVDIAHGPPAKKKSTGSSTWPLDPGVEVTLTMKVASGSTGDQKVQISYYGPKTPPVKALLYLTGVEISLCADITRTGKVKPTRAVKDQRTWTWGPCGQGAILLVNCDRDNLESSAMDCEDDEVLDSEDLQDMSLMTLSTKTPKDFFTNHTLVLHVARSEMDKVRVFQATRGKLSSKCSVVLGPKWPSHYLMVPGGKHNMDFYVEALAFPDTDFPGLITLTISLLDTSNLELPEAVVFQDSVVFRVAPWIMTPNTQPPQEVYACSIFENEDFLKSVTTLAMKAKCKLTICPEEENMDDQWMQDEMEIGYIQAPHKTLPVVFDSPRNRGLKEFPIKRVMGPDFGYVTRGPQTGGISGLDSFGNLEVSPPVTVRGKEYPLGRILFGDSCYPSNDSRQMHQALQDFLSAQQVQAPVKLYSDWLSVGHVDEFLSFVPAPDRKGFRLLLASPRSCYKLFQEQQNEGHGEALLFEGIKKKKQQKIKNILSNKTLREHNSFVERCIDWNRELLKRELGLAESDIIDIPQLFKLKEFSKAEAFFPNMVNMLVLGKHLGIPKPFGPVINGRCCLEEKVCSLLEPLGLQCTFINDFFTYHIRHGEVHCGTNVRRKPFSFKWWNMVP

| SMILES | IC50 [nM] |
| --- | --- |
| COc1cc(C(=O)N2[C@H]3CC[C@@H]2[C@H](N)C3)cc2nc(-c3cc4ccc([C@@H](C)NC(=O)C56CC(F)(C5)C6)c(F)c4n3CC3CC3)n(C)c12 [US11878965, Example 144] | 229 |
| COc1cc(C(=O)N2[C@H]3CC[C@@H]2[C@H](N)C3)cc2nc(-c3cc4ccc([C@@H](C)NC(=O)N5CC(F)(F)C5)nc4n3CC3CC3)n(C)c12 [US11878965, Example 238] | 28.7 |
| COc1cc(C(=O)N2C[C@H](N)CC[C@@H]2C)cc2nc(-c3cc4ccc(-c5cccnc5-c5cccnc5Cl)nc4n3CC3CC3)n(C)c12 [US11878965, Example 258] | 245 |
| COc1cc(C(=O)N2C[C@H](N)CC[C@@H]2C)cc2nc(-c3cc4ccc(N5C(=O)CC[C@H]5C)nc4n3CC3CC3)n(C)c12 [US11878965, Example 284] | 1240 |
| COc1cc(C(=O)N2C[C@H](N)[C@@H]3CC[C@H]2C3)cc2nc(-c3cc4ccc([C@@H](C)NC(=O)c5cccnc5Cl)nc4n3CC3CC3)n(C)c12 [US11878965, Example 302] | 68.4 |
